Experimental data from paper PMC4704022, “Insights on FXR selective modulation. Speculation on bile acid chemical space in the discovery of potent and selective agonists” (Scientific Reports, 2016).
“Also recorded” adds a separate entry of the source. One block for each compound: values may come before it.

Key:
FXR [1] = molecular target: T1, FXR (Homo sapiens, UniProt Q96RI1); assay: FXR transactivation luciferase reporter assay in transfected HepG2 cells; type: cell-based; settings: for EC50: HepG2 cells transfected with FXR, luciferase reporter, 100 nM to 10 μM; for FXR transactivation activity (in words): HepG2 cells, compounds at 10 μM, CDCA 10 μM and 6-ECDCA 1 μM as positive controls
T1 construct: expressed in transfected cells; host or cells: HepG2
T1 sequence (Q96RI1 1-486): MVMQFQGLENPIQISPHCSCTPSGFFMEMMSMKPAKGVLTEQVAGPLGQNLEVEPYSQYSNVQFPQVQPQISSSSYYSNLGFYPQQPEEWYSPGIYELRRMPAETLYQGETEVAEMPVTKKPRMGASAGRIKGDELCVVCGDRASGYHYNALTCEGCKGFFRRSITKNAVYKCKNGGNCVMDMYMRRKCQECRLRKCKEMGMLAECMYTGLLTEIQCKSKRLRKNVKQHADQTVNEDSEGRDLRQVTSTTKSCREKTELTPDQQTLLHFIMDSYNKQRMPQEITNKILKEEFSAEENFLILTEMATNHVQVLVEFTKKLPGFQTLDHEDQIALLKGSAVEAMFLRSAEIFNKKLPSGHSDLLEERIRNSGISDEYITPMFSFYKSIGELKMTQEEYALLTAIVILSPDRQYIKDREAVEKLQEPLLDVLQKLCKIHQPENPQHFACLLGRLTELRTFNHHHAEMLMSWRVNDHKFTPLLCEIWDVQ
T1 sequence (P19793 1-462 partner): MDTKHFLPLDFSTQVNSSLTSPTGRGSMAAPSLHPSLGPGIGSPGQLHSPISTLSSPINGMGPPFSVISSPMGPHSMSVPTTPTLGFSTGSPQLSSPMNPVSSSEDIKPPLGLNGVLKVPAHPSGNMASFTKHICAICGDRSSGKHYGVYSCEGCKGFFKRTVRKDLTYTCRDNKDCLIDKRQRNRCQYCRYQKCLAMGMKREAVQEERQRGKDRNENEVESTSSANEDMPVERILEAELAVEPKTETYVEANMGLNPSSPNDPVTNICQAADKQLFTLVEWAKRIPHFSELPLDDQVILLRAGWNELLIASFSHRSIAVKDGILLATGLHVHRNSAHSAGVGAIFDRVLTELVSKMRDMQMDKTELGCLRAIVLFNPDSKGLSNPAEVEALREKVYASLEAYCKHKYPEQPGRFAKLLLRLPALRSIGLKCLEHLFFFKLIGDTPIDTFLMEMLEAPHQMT
Experimental: Figure 6 Transactivation assays on FXR. (A) HepG2 cells were transfected with pSG5-FXR, pSG5-RXR, pCMV-βgal, and p(hsp27)TKLUC vectors. […] Twenty-four hour post transfection cells were stimulated with increasing concentrations of each agent: range from 100 nM to 10 μM.
To evaluate the transcriptional activity of FXR, HepG2 cells were transiently transfected with Fugene HD reagent (Promega) using the followings plasmids: pCMVSPORT-humanFXR, pSG5RXR, p(hsp27)TKLUC and pGL4.70, a plasmid containing the Renilla gene used for luciferase normalization.

GPBAR1 [2] = molecular target: T2, GPBAR1 (Homo sapiens, UniProt Q8TDU6); assay: GPBAR1 agonism, CRE-luciferase transactivation assay in transfected HEK-293T cells; type: cell-based; settings: from FXR and GPBAR1 transactivation results
T2 construct: expressed in transfected cells; host or cells: HEK-293T
T2 sequence (Q8TDU6 1-330): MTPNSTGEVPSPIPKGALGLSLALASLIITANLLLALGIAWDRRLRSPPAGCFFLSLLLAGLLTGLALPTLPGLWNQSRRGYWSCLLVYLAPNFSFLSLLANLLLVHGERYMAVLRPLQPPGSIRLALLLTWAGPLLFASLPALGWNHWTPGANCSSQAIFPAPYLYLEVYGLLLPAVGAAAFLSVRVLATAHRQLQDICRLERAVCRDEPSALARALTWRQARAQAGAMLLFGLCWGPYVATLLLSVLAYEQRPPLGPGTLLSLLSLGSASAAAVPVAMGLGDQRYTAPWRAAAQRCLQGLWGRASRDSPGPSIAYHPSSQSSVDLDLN
Experimental: (A) HEK-293T cells were co-transfected with GPBAR1 and a reporter gene containing a cAMP responsive element in front of the luciferase gene. Twenty-four hour post transfection cells were stimulated with 7–21 (10 μM). Luciferase activity served as a measure of the rise in intracellular cAMP following activation of GPBAR1. […] Twenty-four hour post transfection cells were stimulated with increasing concentrations of each agent: range from 100 nM to 50 μM. Results are expressed as mean ± standard error.
To investigate GPBAR1 activation, HEK-293T cells were transiently transfected with Fugene HD reagent (Promega) using the following vectors: pCMVSPORT6-human GPBAR1, pGL4.29 (Promega), a reporter vector containing a cAMP response element (CRE) cloned upstream to the luciferase reporter gene luc2P and pGL4.70. […] Dose-response curves were performed in HEK-293T cells transfected as described above and treated with increasing concentrations of 9 and 21 (from 100 nM to 50 μM). […] At 18 h post stimulations, cellular lysate was assayed for luciferase and renilla activities using the Dual-Luciferase Reporter assay system (E1980, Promega). Luminescence was measured using Glomax 20/20 luminometer (Promega). Luciferase activities were normalized with Renilla activities.

FXR-LBD = molecular target: T3, FXR-LBD (Homo sapiens, UniProt Q96RI1); assay: Alphascreen coactivator recruitment assay, FXR-LBD with SRC-1 peptide; type: biochemical; settings: ligand at 2 μM, effect of 6 set as 100%
T3 construct: 10 nM of purified GST-tagged FXR-LBD protein
T3 sequence (Q96RI1 262-486 limits assumed): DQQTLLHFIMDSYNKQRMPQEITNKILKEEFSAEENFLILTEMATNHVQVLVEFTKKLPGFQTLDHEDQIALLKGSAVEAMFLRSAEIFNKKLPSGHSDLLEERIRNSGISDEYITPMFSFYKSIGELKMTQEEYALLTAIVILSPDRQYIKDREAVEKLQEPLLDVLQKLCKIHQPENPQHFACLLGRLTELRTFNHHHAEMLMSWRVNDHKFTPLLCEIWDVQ
Experimental: Figure 7 Coactivator recruitment assay measuring a direct interaction of FXR with SRC-1. Anti-GST-coated acceptor beads captured GST-fusion FXR-LBD and the biotinylated-SRC-1 peptide was captured by the streptavidin donor beads. FXR-LBD recruited SRC-1 in the presence of ligand at 2 μM and, upon illumination at 680 nm, chemical energy is transferred from donor to acceptor beads across the complex streptavidin-donor/Src-1-biotin/ligand/GSTFXR-LBD/anti-GST-acceptor and a signal is produced. Results are expressed as percentage of the effect of 6 arbitrarily settled as 100%. NT is referred to the experiment carried out in absence of ligand. Results are expressed as mean ± standard error.
The relative potency of selected members of this novel family was then investigated by a detailed measurement of concentration-response curve of the 3-deoxy sulfate derivative 9, the corresponding carboxylic acid 10, and the 3β-hydroxyl alcohol 15 and carboxylic acid derivative 17, all sharing the 6α/7α configuration, on FXR transactivation. […] In this assay, the ligand induces the recruitment of the coactivator to the LBD of hFXR.
Anti-GST-coated acceptor beads were used to capture the GST-fusion FXR-LBD, whereas the biotinylated-SRC-1 peptide was captured by the streptavidin donor beads. Upon illumination at 680 nm, chemical energy is transferred from donor to acceptor beads across the complex streptavidin-donor/Src-1-biotin/GSTFXR-LBD/anti-GST-acceptor and a signal is produced. The assay was performed in white, low-volume, 384-well Optiplates (PerkinElmer) using a final volume of 25 μL containing final concentrations of 10 nM of purified GST-tagged FXR-LBD protein, 30 nM biotinylated Src-1 peptide, 20 μg/mL anti-GST acceptor beads acceptor beads, and 10 μg/mL of streptavidin donor bead (PerkinElmer). The assay buffer contained 50 mM Tris (pH 7.4), 50 mM KCl, 0.1% BSA, and 1 mM DTT. […] After the addition of the detection mix (acceptor and donor beads), the plates were incubated in the dark for 4 h at room temperature and then were read in an Envision microplate analyzer (PerkinElmer).

FXR [3] = test system: FXR; parameters: method as in PMID 10360171; settings: cited from earlier work
GPBAR1 [4] = test system: GPBAR1; parameters: method as in PMID 25247751; settings: cited from earlier work
NASH patients = test system: NASH patients; parameters: method as in PMID 25468160; settings: cited from earlier work
PBC patients = settings: cited from earlier work

SMILES: CC[C@H]1[C@@H](O)C2C3CC[C@H]([C@H](C)CCCOS(=O)(=O)O)[C@@]3(C)CCC2[C@@]2(C)CCCC[C@@H]12 (stereo partly drawn) [compound 9]
- EC50 (FXR [1]): 1100 nM
- FXR transactivation activity (in words) (FXR [1]): potent agonists of FXR
- Receptor preference FXR versus GPBAR1 (in words) (GPBAR1 [2]): preferential FXR modulator with a residual activity on GPBAR1

SMILES: CC[C@@H]1[C@@H](O)C2C3CC[C@H]([C@H](C)CCCO)[C@@]3(C)CCC2[C@@]2(C)CC[C@H](O)C[C@@H]12 (stereo partly drawn) [compound 21]
- FXR transactivation activity (in words) (FXR [1]): less potent then CDCA in transactivating FXR
- Receptor preference FXR versus GPBAR1 (in words) (GPBAR1 [2]): weak but preferential GPBAR1 activator

- FXR transactivation activity (in words) (FXR [1]): potent agonists of FXR
SMILES: CC[C@H]1[C@@H](O)[C@@H]2[C@H](CC[C@]3(C)[C@@H]([C@H](C)CCC(=O)O)CC[C@@H]23)[C@@]2(C)CC[C@H](O)C[C@@H]12 [compound 17, 6α-ethyl-3β,7α-dihydroxy-5β-cholan-24-oic acid]
- Recruitment of SRC-1 coactivator to FXR-LBD (in words) (FXR-LBD): very potent activity in the recruitment of SRC-1 co-activator

SMILES: C[C@H](CCC(=O)O)[C@H]1CC[C@H]2[C@@H]3CC[C@@H]4C[C@H](O)CC[C@]4(C)[C@H]3C[C@H](O)[C@]12C [deoxycholic acid]
- FXR ligand strength relative to CDCA (in words) (FXR [3]): weaker natural ligands

SMILES: CC[C@H]1[C@@H](O)C2C3CC[C@H]([C@H](C)CCC(=O)NCCS(=O)(=O)O)[C@@]3(C)CCC2[C@@]2(C)CCCC[C@@H]12 (stereo partly drawn) [compound 12]
- FXR transactivation activity (in words) (FXR [1]): ability in transactivating FXR is also maintained; also recorded: still a potent FXR agonist

SMILES: C[C@H](CCC(=O)O)[C@H]1CC[C@H]2[C@@H]3[C@H](O)C[C@@H]4C[C@@H](O)CC[C@]4(C)[C@H]3CC[C@]12C [iso-CDCA, isochenodeoxycholic acid]
- GPBAR1 activity (in words) (GPBAR1 [4]): very weak activity towards GPBAR1

SMILES: CC[C@H]1[C@H](O)[C@@H]2[C@H](CC[C@]3(C)[C@@H]([C@H](C)CCC(=O)O)CC[C@@H]23)[C@@]2(C)CCCC[C@@H]12 [compound 11, 6α-ethyl-7β-hydroxy-5β-cholan-24-oic acid]
- FXR transactivation activity (in words) (FXR [1]): retains a certain activity

SMILES: C[C@H](CCC(=O)O)[C@H]1CC[C@H]2[C@@H]3CC[C@@H]4C[C@@H](O)CC[C@]4(C)[C@H]3CC[C@]12C [iso-LCA]
- GPBAR1 activity (in words) (GPBAR1 [4]): less potent respect to the cognate LCA

SMILES: CC[C@H]1[C@@H](O)[C@@H]2[C@H](CC[C@]3(C)[C@@H]([C@H](C)CCCO)CC[C@@H]23)[C@@]2(C)CC[C@H](O)C[C@@H]12 [compound 15, 6α-ethyl-3β,7α-dihydroxy-5β-cholan-24-ol]
- Recruitment of SRC-1 coactivator to FXR-LBD (in words) (FXR-LBD): very potent activity in the recruitment of SRC-1 co-activator
- EC50 (FXR [1]): 2200 nM
- FXR transactivation activity (in words) (FXR [1]): potent agonists of FXR

SMILES: CC[C@H]1[C@H](O)C2C3CC[C@H]([C@H](C)CCCO)[C@@]3(C)CCC2[C@@]2(C)CCCC[C@@H]12 (stereo partly drawn) [compound 8]
- FXR transactivation activity (in words) (FXR [1]): completely inactive towards FXR

SMILES: CC[C@H]1[C@@H](O)C2C3CC[C@H]([C@H](C)CCC(=O)NCCS(=O)(=O)O)[C@@]3(C)CCC2[C@@]2(C)CC[C@H](O)C[C@@H]12 (stereo partly drawn) [compound 19]
- FXR transactivation activity (in words) (FXR [1]): considerable decrease in FXR transactivation activity; also recorded: detrimental in term of FXR activation

SMILES: CC[C@@H]1[C@H](O)C2C3CC[C@H]([C@H](C)CCCO)[C@@]3(C)CCC2[C@@]2(C)CC[C@H](O)C[C@@H]12 (stereo partly drawn) [compound 20]
- FXR transactivation activity (in words) (FXR [1]): complete loss of activity

SMILES: CC[C@H]1[C@@H](O)[C@@H]2[C@H](CC[C@]3(C)[C@@H]([C@H](C)CCC(=O)O)CC[C@@H]23)[C@@]2(C)CC[C@@H](O)C[C@@H]12 [6-ECDCA, 6-ethylchenodeoxycholic acid]
- NASH resolution, patients (NASH patients; after 72 weeks, p = 0.08 vs. placebo): 22%
- Decrease in HDL-C levels (NASH patients; as compared to placebo): 5%
- Increase in LDL-C (NASH patients; as compared to placebo): 16%
- Primary histological outcome (NAFLD activity score) and fibrosis score (NASH patients; compared with placebo): significantly improved
- Drug discontinuation due to exacerbation of itching, patients (PBC patients; PBC patients): 40%
- Drug discontinuation, patients (PBC patients; due to pruritus): 40%
- Incidence of pruritus, patients (PBC patients; patients with primary biliary cirrhosis): up to 80%

SMILES: CC[C@@H]1[C@H](O)C2C3CC[C@H]([C@H](C)CCCO)[C@@]3(C)CCC2[C@@]2(C)CCCC[C@@H]12 (stereo partly drawn) [compound 13]
- FXR transactivation activity (in words) (FXR [1]): complete loss of activity

SMILES: CC[C@H]1[C@@H](O)C2C3CC[C@H]([C@H](C)CCCO)[C@@]3(C)CCC2[C@@]2(C)CCCC[C@@H]12 (stereo partly drawn) [compound 7]
- FXR transactivation activity (in words) (FXR [1]): potent agonists of FXR
